Test results taken from ChEMBL document CHEMBL5579895, “Discovery of TYRA-300: First Oral Selective FGFR3 Inhibitor for the Treatment of Urothelial Cancers and Achondroplasia” (J Med Chem, 2024).
Values after ≈ are worked out from the molar mass of the structure shown.

What was measured:
RT112/84 [1] = assay: animal or person; assay type: functional, Homo sapiens; conditions: Mus musculus, RT112/84, 504 h, route po, time 21 day, read-out: TGI
Description: Antitumor activity against human RT112/84 cells harboring FGFR3 V555M mutant xenografted in Balb/c nude mouse model at 12.5 mg/kg, po bid treated for 21 days relative to control

[2] = biological target: Vascular endothelial growth factor receptor 3 (Homo sapiens, UniProt P35916); assay: Inhibition of human FLT4 by KINOMEscan analysis
[3] = Inhibition of recombinant FGFR3/BAIAP2L1 (unknown origin) transduced in mouse BaF3 cells incubated for 48 hrs by Cell Titer Glo assay; assay type: cell-based; conditions: BaF3, 48 h
[4] = Cmax in monkey at 10 mg/kg, po measured for 24 hrs by LC-MS/MS analysis; assay type: ADME, organism-based, Macaca mulatta; conditions: rhesus monkey, in vivo
[5] = Volume of distribution in dog at 1 mg/kg, iv measured for 24 hrs by LC-MS/MS analysis; assay type: ADME, organism-based, Canis lupus familiaris; conditions: in vivo
[6] = biological target: Fibroblast growth factor receptor 4 (Homo sapiens, UniProt P22455); assay: Inhibition of human FGFR4 by KINOMEscan analysis
[7] = Inhibition of cell viability in human UMUC14 cells harboring FGFR3 V555M mutant incubated for 72 to 120 hrs by Cell Titer Glo assay; assay type: functional, cell-based
[8] = Thermodynamic solubility in FaSSGF; assay type: ADME; conditions: read-out: Therm_solubility
[9] = Apparent permeability in MDCK-MDR1 cells; assay type: ADME, cell-based, Canis lupus familiaris; conditions: dog
[10] = biological target: Fibroblast growth factor receptor 3 (Homo sapiens, UniProt P22607, K650E); assay: Inhibition of FGFR3 K650E mutant (unknown origin) by mobility shift assay
[11] = biological target: Leukocyte tyrosine kinase receptor (Homo sapiens, UniProt P29376); assay: Inhibition of human LTK by KINOMEscan analysis
Leukocyte tyrosine kinase receptor, sequence (P29376 whole entry): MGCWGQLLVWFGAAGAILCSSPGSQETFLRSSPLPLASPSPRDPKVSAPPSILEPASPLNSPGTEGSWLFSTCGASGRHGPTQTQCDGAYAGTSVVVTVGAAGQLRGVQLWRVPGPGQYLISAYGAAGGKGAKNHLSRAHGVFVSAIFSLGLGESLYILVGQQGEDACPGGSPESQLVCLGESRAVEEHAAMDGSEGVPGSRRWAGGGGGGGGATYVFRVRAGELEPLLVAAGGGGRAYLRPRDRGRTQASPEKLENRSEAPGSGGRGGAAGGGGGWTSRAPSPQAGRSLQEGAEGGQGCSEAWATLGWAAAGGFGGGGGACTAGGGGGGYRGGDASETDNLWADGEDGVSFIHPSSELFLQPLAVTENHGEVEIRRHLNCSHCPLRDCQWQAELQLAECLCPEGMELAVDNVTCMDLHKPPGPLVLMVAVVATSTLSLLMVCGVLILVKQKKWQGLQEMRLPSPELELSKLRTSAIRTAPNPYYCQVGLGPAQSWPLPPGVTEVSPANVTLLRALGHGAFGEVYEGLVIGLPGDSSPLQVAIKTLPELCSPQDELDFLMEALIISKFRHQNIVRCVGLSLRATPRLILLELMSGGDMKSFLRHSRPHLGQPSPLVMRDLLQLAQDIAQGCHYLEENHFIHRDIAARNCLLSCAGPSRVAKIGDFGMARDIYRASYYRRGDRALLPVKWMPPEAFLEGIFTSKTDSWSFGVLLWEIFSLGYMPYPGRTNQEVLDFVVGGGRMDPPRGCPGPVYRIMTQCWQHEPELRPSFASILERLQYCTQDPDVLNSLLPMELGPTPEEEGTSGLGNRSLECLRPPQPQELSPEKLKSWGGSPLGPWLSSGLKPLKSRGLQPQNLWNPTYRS

[12] = biological target: Voltage-gated inwardly rectifying potassium channel KCNH2 (Homo sapiens, UniProt Q12809); assay: Inhibition of hERG expressed in CHO cells by automated patch-clamp assay; assay type: toxicity, cell-based
KG-1 = assay: Inhibition of cell viability in human KG-1 cells harboring FGFR1-fusion incubated for 72 to 120 hrs by Cell Titer Glo assay; assay type: functional, cell-based
[13] = biological target: Vascular endothelial growth factor receptor 2 (Homo sapiens, UniProt P35968); assay: Inhibition of human VEGFR2 at 100 nM by KINOMEscan analysis relative to control
[14] = Half life in monkey at 1 mg/kg, iv measured for 24 hrs by LC-MS/MS analysis; assay type: ADME, organism-based, Macaca mulatta; conditions: rhesus monkey, in vivo
[15] = Stability in dog hepatocytes assessed as half life at 1 uM incubated upto 180 mins by LC-MS/MS analysis; assay type: ADME, cell-based, Canis lupus familiaris, Hepatocyte
[16] = biological target: Fibroblast growth factor receptor 3 (Homo sapiens, UniProt P22607, K650M); assay: Inhibition of FGFR3 K650M mutant (unknown origin) by mobility shift assay
[17] = Stability in human hepatocytes assessed as intrinsic clearance at 1 uM incubated upto 180 mins by LC-MS/MS analysis; assay type: ADME, cell-based, Hepatocyte; conditions: read-out: CLH
[18] = Inhibition of cell viability in human UMUC14 cells harboring FGFR3 S249C mutant incubated for 72 to 120 hrs by Cell Titer Glo assay; assay type: functional, cell-based
[19] = Cmax in Sprague-Dawley rat at 10 mg/kg, po measured for 24 hrs by LC-MS/MS analysis; assay type: ADME, organism-based; conditions: in vivo
[20] = Tmax in monkey at 10 mg/kg, po measured for 24 hrs by LC-MS/MS analysis; assay type: ADME, organism-based, Macaca mulatta; conditions: rhesus monkey, in vivo
[21] = Stability in mouse hepatocytes assessed as half life at 1 uM incubated upto 180 mins by LC-MS/MS analysis; assay type: ADME, cell-based, Hepatocyte
[22] = Stability in rat hepatocytes assessed as half life at 1 uM incubated upto 180 mins by LC-MS/MS analysis; assay type: ADME, cell-based, Hepatocyte
[23] = biological target: T1, Fibroblast growth factor receptor 3 (Homo sapiens, UniProt P22607); assay: Inhibition of wild-type FGFR3 (unknown origin) by NanoBRET assay
T1 sequence (P22607 whole entry): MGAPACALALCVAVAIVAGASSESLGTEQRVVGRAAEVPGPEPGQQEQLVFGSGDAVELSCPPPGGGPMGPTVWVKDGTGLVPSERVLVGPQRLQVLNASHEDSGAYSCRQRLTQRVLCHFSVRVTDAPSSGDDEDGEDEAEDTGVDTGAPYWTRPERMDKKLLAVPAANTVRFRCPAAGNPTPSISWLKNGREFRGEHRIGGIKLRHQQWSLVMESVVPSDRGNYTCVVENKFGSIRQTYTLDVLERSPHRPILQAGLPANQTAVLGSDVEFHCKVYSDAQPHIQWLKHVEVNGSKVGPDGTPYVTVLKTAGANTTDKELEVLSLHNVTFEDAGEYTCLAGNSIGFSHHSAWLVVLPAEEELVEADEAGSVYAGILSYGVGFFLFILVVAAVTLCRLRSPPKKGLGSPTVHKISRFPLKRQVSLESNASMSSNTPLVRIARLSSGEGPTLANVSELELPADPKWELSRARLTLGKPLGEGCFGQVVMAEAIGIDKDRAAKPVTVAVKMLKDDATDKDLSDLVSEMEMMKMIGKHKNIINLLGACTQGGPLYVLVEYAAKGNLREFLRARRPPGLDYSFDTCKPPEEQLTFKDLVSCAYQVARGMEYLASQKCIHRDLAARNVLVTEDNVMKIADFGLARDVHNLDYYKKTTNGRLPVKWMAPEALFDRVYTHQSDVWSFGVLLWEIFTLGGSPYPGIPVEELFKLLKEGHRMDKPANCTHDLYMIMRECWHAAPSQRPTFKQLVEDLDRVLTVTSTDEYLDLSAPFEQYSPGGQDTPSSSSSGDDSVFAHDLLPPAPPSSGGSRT

[24] = AUC (last) in dog at 10 mg/kg, po measured for 24 hrs by LC-MS/MS analysis; assay type: ADME, organism-based, Canis lupus familiaris; conditions: in vivo
[25] = biological target: Tyrosine-protein kinase JAK2 (Homo sapiens, UniProt O60674); assay: Inhibition of human JAK2 by KINOMEscan analysis
Tyrosine-protein kinase JAK2, sequence (O60674 whole entry): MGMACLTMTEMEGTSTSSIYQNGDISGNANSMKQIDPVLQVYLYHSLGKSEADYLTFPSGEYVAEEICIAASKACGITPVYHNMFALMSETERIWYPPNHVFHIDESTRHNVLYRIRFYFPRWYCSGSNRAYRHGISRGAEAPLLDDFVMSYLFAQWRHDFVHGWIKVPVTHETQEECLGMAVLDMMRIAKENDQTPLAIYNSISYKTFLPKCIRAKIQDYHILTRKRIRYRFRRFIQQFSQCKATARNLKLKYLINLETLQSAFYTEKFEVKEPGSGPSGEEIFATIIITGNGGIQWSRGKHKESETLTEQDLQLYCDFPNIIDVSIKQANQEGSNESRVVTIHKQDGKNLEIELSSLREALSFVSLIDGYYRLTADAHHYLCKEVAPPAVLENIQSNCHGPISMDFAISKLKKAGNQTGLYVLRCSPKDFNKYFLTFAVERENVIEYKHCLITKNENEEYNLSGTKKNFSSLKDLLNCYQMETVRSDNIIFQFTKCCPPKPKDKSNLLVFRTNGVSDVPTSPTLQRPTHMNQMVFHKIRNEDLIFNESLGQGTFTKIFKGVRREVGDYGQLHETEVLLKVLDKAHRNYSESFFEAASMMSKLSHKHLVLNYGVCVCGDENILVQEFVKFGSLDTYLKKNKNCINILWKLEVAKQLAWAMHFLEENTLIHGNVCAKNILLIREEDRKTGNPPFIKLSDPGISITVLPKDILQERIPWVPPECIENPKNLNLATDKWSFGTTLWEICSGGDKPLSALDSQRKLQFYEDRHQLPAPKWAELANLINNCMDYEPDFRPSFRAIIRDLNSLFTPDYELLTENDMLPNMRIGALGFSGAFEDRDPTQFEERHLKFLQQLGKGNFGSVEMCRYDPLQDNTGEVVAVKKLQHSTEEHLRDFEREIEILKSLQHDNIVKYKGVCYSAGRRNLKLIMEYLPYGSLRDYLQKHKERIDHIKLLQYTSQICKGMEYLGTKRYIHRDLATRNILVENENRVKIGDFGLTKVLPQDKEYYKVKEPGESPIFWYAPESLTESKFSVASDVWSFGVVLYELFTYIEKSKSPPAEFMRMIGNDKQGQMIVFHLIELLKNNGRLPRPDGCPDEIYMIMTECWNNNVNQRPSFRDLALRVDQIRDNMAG

[26] = biological target: Fibroblast growth factor receptor 1 (Homo sapiens, UniProt P11362); assay: Inhibition of human FGFR1 by KINOMEscan analysis
[27] = biological target: Fibroblast growth factor receptor 3 (Homo sapiens, UniProt P22607, V555M); assay: Inhibition of FGFR3 V555M mutant (unknown origin) by mobility shift assay
Fibroblast growth factor receptor 3 (Homo sapiens, UniProt P22607, V555M), sequence (P22607 23-806 V555M limits assumed): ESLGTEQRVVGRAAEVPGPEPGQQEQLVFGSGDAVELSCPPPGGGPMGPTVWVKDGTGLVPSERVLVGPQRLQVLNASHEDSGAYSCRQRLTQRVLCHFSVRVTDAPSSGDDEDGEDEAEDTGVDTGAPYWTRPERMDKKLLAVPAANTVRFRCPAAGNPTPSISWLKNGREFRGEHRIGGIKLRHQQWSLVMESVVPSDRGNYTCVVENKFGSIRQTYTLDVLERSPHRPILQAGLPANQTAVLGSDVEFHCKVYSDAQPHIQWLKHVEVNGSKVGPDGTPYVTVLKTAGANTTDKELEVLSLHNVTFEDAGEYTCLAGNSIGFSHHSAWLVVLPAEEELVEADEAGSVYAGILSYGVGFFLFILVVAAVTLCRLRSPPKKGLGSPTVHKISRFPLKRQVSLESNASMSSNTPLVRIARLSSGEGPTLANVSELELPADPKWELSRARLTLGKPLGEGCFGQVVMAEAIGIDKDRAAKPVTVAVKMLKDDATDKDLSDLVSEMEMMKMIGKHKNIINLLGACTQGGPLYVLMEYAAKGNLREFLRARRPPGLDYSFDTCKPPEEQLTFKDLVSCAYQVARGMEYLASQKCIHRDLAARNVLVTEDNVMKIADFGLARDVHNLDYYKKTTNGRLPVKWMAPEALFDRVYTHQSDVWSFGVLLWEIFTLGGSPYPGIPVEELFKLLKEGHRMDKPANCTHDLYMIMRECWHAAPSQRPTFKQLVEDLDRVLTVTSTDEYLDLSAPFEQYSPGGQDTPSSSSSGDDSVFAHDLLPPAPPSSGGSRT

[28] = AUC (last) in dog at 1 mg/kg, iv measured for 24 hrs by LC-MS/MS analysis; assay type: ADME, organism-based, Canis lupus familiaris; conditions: in vivo
[29] = Oral bioavailability in monkey at 10 mg/kg measured for 24 hrs by LC-MS/MS analysis; assay type: ADME, organism-based, Macaca mulatta; conditions: rhesus monkey, in vivo
[30] = Oral bioavailability in dog at 10 mg/kg measured for 24 hrs by LC-MS/MS analysis; assay type: ADME, organism-based, Canis lupus familiaris; conditions: in vivo
[31] = Apparent permeability in human Caco-2 cells; assay type: ADME, cell-based
[32] = Tmax in dog at 10 mg/kg, po measured for 24 hrs by LC-MS/MS analysis; assay type: ADME, organism-based, Canis lupus familiaris; conditions: in vivo
RT-4 = assay: Inhibition of cell viability in human RT-4 cells harboring FGFR3/TACC3 fusion incubated for 72 to 120 hrs by Cell Titer Glo assay; assay type: functional, cell-based
[33] = Oral bioavailability in Sprague-Dawley rat at 10 mg/kg measured for 24 hrs by LC-MS/MS analysis; assay type: ADME, organism-based; conditions: in vivo
[34] = Half life in dog at 10 mg/kg, po measured for 24 hrs by LC-MS/MS analysis; assay type: ADME, organism-based, Canis lupus familiaris; conditions: in vivo
[35] = Thermodynamic solubility in FeSSIF; assay type: ADME; conditions: read-out: Therm_solubility
[36] = Volume of distribution in Sprague-Dawley rat at 2 mg/kg, iv measured for 24 hrs by LC-MS/MS analysis; assay type: ADME, organism-based; conditions: in vivo
[37] = Stability in human hepatocytes assessed as half life at 1 uM incubated upto 180 mins by LC-MS/MS analysis; assay type: ADME, cell-based, Hepatocyte
[38] = biological target: T1, Fibroblast growth factor receptor 3; assay: Inhibition of wild-type FGFR3 (unknown origin) by mobility shift assay
[39] = Clearance in monkey at 1 mg/kg, iv measured for 24 hrs by LC-MS/MS analysis; assay type: ADME, organism-based, Macaca mulatta; conditions: rhesus monkey, in vivo
[40] = Cmax in dog at 10 mg/kg, po measured for 24 hrs by LC-MS/MS analysis; assay type: ADME, organism-based, Canis lupus familiaris; conditions: in vivo
RT112/84 [41] = assay: animal or person; assay type: functional, Homo sapiens; conditions: Mus musculus, RT112/84, 504 h, route po, time 21 day, read-out: TGI; remark: listed apart in the source
Description: Antitumor activity against human RT112/84 cells harboring FGFR3/TACC3 fusion xenografted in Balb/c nude mouse model at 12.5 mg/kg, po bid treated for 21 days relative to control

[42] = biological target: Fibroblast growth factor receptor 3 (Homo sapiens, UniProt P22607, V555L); assay: Inhibition of FGFR3 V555L mutant (unknown origin) by mobility shift assay
Fibroblast growth factor receptor 3 (Homo sapiens, UniProt P22607, V555L), sequence (P22607 23-806 V555L limits assumed): as the sequence (P22607 23-806 V555M limits assumed) above, with M533L counted along it

[43] = Clearance in Sprague-Dawley rat at 2 mg/kg, iv measured for 24 hrs by LC-MS/MS analysis; assay type: ADME, organism-based; conditions: in vivo
[44] = biological target: Fibroblast growth factor receptor 2 (Homo sapiens, UniProt P21802); assay: Inhibition of human FGFR2 by KINOMEscan analysis
[45] = Clearance in dog at 1 mg/kg, iv measured for 24 hrs by LC-MS/MS analysis; assay type: ADME, organism-based, Canis lupus familiaris; conditions: in vivo
DMS-114 = assay: Inhibition of cell viability in human DMS-114 cells harboring FGFR1-amplification incubated for 72 to 120 hrs by Cell Titer Glo assay; assay type: functional, cell-based

In the case of `C[C@@H](Oc1ccc2[nH]nc(-c3ccc(N4CC5(C4)CN(S(C)(=O)=O)C5)nc3)c2c1)c1c(Cl)cncc1Cl`, the inhibition in vivo at 12.5 mg/kg (RT112/84 [1]) is reported as 77%, the IC50 [2] is reported as 2.1 nM and the IC50 [3] is reported as 11 nM. It also gave a Cmax [4] of 1210 ng/mL, a Vd [5] of 1.12 L/kg and an IC50 [6] of 11 nM. For the same compound, the IC50 [7] was 21 nM, the solubility thermodynamic [8] was 34 µM (≈ 19 µg/mL) and the Papp [9] was 1 ×10⁻⁶ cm/s. For the same compound, the IC50 [10] was 2.8 nM, the IC50 [11] was 65 nM and the IC50 [12] was 9300 nM. For the same compound, the IC50 (KG-1) was 109 nM, the inhibition [13] was under 90% and the half-life [14] was 1.17 h. For the same compound, the half-life at 1 µM [15] was over 1.67 h, the IC50 [16] was 2.3 nM and the CLint scaled at 1 µM [17] was 14 mL/min/kg. It also gave an IC50 [18] of 16 nM, a Cmax [19] of 802 ng/mL and a Tmax [20] of 6 h. For the same compound, the half-life at 1 µM [21] was over 1.67 h, the half-life at 1 µM [22] was 1.23 h and the IC50 [23] was 21 nM. For the same compound, the AUC(0-t) at 24 h [24] was 58300 ng·h/mL, the IC50 [25] was 36 nM and the IC50 [26] was 108 nM. The IC50 [27] was 2 nM, the AUC(0-t) at 24 h [28] was 5930 ng·h/mL and the bioavailability [29] was 106%. For the same compound, the bioavailability [30] was 98%, the Papp [31] was 1.1 ×10⁻⁶ cm/s and the Tmax [32] was 6 h. The IC50 (RT-4) was 10 nM, the bioavailability [33] was 39% and the half-life [34] was 24.8 h. For the same compound, the solubility thermodynamic [35] was 514 µM (≈ 288 µg/mL), the Vd [36] was 2.5 L/kg and the half-life at 1 µM [37] was over 1.67 h. The IC50 [38] was 1.6 nM, the clearance [39] was 11.1 mL/min/kg and the Cmax [40] was 3090 ng/mL. The inhibition in vivo at 12.5 mg/kg (RT112/84 [41]) was 95%, the IC50 [42] was 1.5 nM and the clearance [43] was 17.5 mL/min/kg. The IC50 [44] was 7 nM, the clearance [45] was 2.68 mL/min/kg and the IC50 (DMS-114) was 205 nM.
